Assay results published in US20090209525A1, “ENABLING METHODS TO IDENTIFY ALLOSTERIC MODULATORS OF RECEPTOR ACTIVITY” (priority 2006, published 2009).
Substitutions are numbered along the chain they refer to.

Key:
[1] = molecular target: T1, rat M1 D105A receptor (Rattus norvegicus, UniProt P08482, D105A); experiment: R-SAT functional assay, D105A mutant; format: cell-based; settings: Table 3, maximum response
T1 construct: expressed in transfected cells; host or cells: NIH-3T3
T1 sequence (P08482 1-460 D105A): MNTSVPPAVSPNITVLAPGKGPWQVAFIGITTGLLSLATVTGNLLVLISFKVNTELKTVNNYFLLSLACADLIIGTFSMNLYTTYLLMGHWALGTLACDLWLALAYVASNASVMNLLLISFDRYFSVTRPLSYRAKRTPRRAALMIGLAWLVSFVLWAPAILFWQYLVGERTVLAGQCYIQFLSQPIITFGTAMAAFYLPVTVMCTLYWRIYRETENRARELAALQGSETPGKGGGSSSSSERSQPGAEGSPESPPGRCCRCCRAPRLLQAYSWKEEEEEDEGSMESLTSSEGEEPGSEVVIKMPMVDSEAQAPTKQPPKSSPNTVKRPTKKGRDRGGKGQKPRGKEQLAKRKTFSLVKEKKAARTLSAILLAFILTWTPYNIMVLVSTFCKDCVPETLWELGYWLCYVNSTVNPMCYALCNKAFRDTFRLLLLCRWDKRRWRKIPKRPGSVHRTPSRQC
Method: (§1) Cells are co-transfected for 18 h with DMEM containing 0.08 micrograms/ml of an expression vector for the expression of the mutant receptor and 0.3 micrograms/ml pSI-Bgal (Promega, Madison Wis.), and 0.5% v/v Polyfect (Qiagen, Valencia Calif.), as recommended by the manufacturer. On day three, the medium is replaced with DMEM containing 1% PSG, 0.5% calf serum, 2% cyto-sf3 (Kemp Biotechnologies, Frederick, Md.), and varying concentrations of the compounds to be tested. Cells are grown in a humidified atmosphere with 5% ambient CO2 for 5 days. The media is removed from the plates, and beta-galactosidase activity is measured by the addition of o-nitrophenyl -d-galactopyranoside in phosphate-buffered saline with 5% Nonidet P-40. […] The following equation is fitted to the data using GraphPad Prism software (San Diego, Calif.):
(§2) NIH-3T3 cells were grown in 96-well tissue culture plates to 70 to 80% confluence in Dulbecco's modified essential media (DMEM) supplemented with 100 units/ml penicillin, 100 micrograms/ml streptomycin, 0.3 mg/ml L-glutamine (1% PSG, GIBCO) and 10% calf serum (Sigma-Aldrich). Cells were transfected for 18 h with DMEM containing 0.08 micrograms/ml receptor DNA and 0.3 micrograms/ml pSI-Bgal (Promega, Madison Wis.), 0.5% v/v Polyfect (Qiagen, Valencia Calif.). Medium was replaced with DMEM containing 1% PSG, 0.5% calf serum, 2% cyto-sf3 (Kemp Biotechnologies, Frederick, Md.), and varying concentrations of ligand. […] Cells were grown in a humidified atmosphere with 5% ambient CO2 for 5 days. Medium was removed from the plates, and beta-galactosidase activity was measured by the addition of o-nitrophenyl -d-galactopyranoside in phosphate-buffered saline with 5% Nonidet P-40.

[2] = molecular target: T2, rat M1 N110A receptor (Rattus norvegicus, UniProt P08482, N110A); experiment: R-SAT functional assay, N110A mutant; format: cell-based; settings: for Eff (%) / Shift / EC50: Table 3; for Eff (%): maximum response, normalized; for Shift: EC50 N110A divided by EC50 wild-type
T2 construct: expressed in transfected cells; host or cells: NIH-3T3
T2 sequence (P08482 1-460 N110A): T1 sequence (P08482 1-460 D105A) with A105D, N110A
Method: as §1, §2

[3] = molecular target: T3, rat M1 Y106A receptor (Rattus norvegicus, UniProt P08482, Y106A); experiment: R-SAT functional assay, Y106A mutant; format: cell-based; settings: for Shift / EC50 / Eff (%): Table 3; for Shift: EC50 Y106A divided by EC50 wild-type; for Eff (%): maximum response, normalized
T3 construct: expressed in transfected cells
T3 sequence (P08482 1-460 Y106A): T1 sequence (P08482 1-460 D105A) with A105D, Y106A
Method: as §1, §2

[4] = molecular target: T3, rat M1 Y106A receptor; experiment: ^3H-NMS radioligand binding, Y106A; settings: for Shift: Ki Y106A divided by Ki wild-type
Method: Briefly, cell homogenates are prepared from cells transiently or stably expressing wild type or mutant receptors. For transiently transfected cells, HEK cells are transfected with receptor of interest and cells harvested 48 hours post transfection. Cells expressing the receptor, stably or transiently, are harvested using phosphate buffered saline containing 5 mM EDTA, cells centrifuged at low speed and pellet re-suspended in binding buffer. Cell suspension is polytroned and centrifuged at 15,000×g. The pellet is resuspended in binding buffer and centrifugation repeated two more times. The washed cell homogenates are used for the competition binding assays. Competition binding assays are carried out in the presence of fixed amount of cell homogenate, fixed concentration of radioactively labeled orthosteric or allosteric ligand and varying concentrations of the cal under study using appropriate buffer. Incubations are carried out at room temperature for 2 hours. Incubations are terminated by filtration onto GF/B filters using Packard cell harvester followed by 3 washes with ice-cold buffer. Radioactivity retained on the filters is quantitated using Packard Top Count using Microscint 20 scintillation fluid. […] The membranes prepared above are incubated with a labeled ligand in 25 mM sodium phosphate, 5 mM magnesium chloride, 0.01% BSA two hours at room temperature. The binding reaction is stopped by rapid filtration onto GF/B filters. […] The pKd values (pKd=−log Kd) of the labeled ligand are calculated.
Radioligand binding assays were carried out in 25 mM sodium phosphate, 5 mM magnesium chloride, 0.01% BSA. Incubations were for two hours at room temperature, and reactions were stopped by rapid filtration onto GF/B filters.

Structure (SMILES)	Eff (%) [1]	Eff (%) ([2]; N110A)	Shift [3]	EC50 ([3]; Y106A) [nM]	Eff (%) ([3]; Y106A)	IC50 [4] [nM]	Shift [4]	decrease in potency relative to wild-type ([2]; R-SAT, N110A) [fold]	Shift [2]	EC50 ([2]; N110A) [nM]	Emax ([3]; R-SAT, Y106A, read-out: increase of maximum response over response at wild-type) [%]
CCCCC1CCN(CCCC(=O)c2ccccc2C)CC1 [AC-42, 4-n-butyl-1-[4-(2-methylphenyl)-4-oxo-1-butyl] piperidine hydrogen chloride]	no resp.	7 ± 1	>8	> 1000	>30 ± — %	5010	1	–	–	–	–
CCCCC1CCN(CCCN2C(=O)COc3cc(F)ccc32)CC1 [AC-260584, 4-[3-(4-Butyl-piperidin-1-yl)-propyl]-7-fluoro-4H-benzo [1,4]oxazin-3-one]	no resp.	38 ± 6	6	79.4	69 ± 3%	3160	3	30	43	631	–
Clc1ccc2c(c1)N=C(N1CCNCC1)c1ccccc1N2 [NDMC, 8-chloro-11-(1-piperazinyl)-5H-dibenzo [b,e] [1,4] diazepine]	no resp.	66 ± 16	2	100	112 ± 15%	50.1	0.3	–	21	794	40
